# Values quoted from earlier work in PubChem BioAssay AID1259409 (Chemical Carcinogenesis Research Information System (CCRIS), 2018).
# Test system: rodent chemically induced tumor inhibition, incidence and multiplicity
# Assay: CCRIS tumor inhibitor studies
# Conditions: Dose [Inhibitor]: 0, Promoter: NONE USED
compound,measurement,setting,value
S=C=NCCc1ccccc1,"tumour outcome (control, treated, inhibition, significance)","Carcinogen: BENZO[A]PYRENE, 50-32-8, 12 MG/KG/D FOR 6 CONSECUTIVE DAYS (STUDY DURATION: 7 MO), Route [Inhibitor]: GAVAGE, Species: MOUSE, Strain/Sex: STRAIN-A/FEMALE, Target Tissue: Type of Lesion: LUNG: TUMOR, Dose [Carcinogen]: 100 MG/KG ONCE AFTER FOURTH INHIBITOR DOSE","100%, 100%, 0%, not significant"
same,"tumour outcome (control, treated, inhibition, significance)","Carcinogen: BENZO[A]PYRENE, 50-32-8, 12 MG/KG/D FOR 6 CONSECUTIVE DAYS (STUDY DURATION: 7 MO), Route [Inhibitor]: GAVAGE, Species: MOUSE, Strain/Sex: STRAIN-A/MALE, Target Tissue: Type of Lesion: LUNG: TUMOR, Dose [Carcinogen]: 100 MG/KG ONCE AFTER FOURTH INHIBITOR DOSE","100%, 100%, 0%, not significant"
same,"tumour outcome (control, treated, inhibition, significance)","Carcinogen: BENZO[A]PYRENE, 50-32-8, 41 MG/KG/D FOR 6 CONSECUTIVE DAYS (STUDY DURATION: 7 MO), Route [Inhibitor]: GAVAGE, Species: MOUSE, Strain/Sex: STRAIN-A/FEMALE, Target Tissue: Type of Lesion: LUNG: TUMOR, Dose [Carcinogen]: 100 MG/KG ONCE AFTER FOURTH INHIBITOR DOSE","100%, 100%, 0%, not significant"
same,"tumour outcome (control, treated, inhibition, significance)","Carcinogen: BENZO[A]PYRENE, 50-32-8, 41 MG/KG/D FOR 6 CONSECUTIVE DAYS (STUDY DURATION: 7 MO), Route [Inhibitor]: GAVAGE, Species: MOUSE, Strain/Sex: STRAIN-A/MALE, Target Tissue: Type of Lesion: LUNG: TUMOR, Dose [Carcinogen]: 100 MG/KG ONCE AFTER FOURTH INHIBITOR DOSE","100%, 95%, 5%, not calculated"
same,"tumour outcome (control, treated, inhibition, significance)","Carcinogen: BENZO[A]PYRENE, 50-32-8, 82 MG/KG/D FOR 6 CONSECUTIVE DAYS (STUDY DURATION: 7 MO), Route [Inhibitor]: GAVAGE, Species: MOUSE, Strain/Sex: STRAIN-A/FEMALE, Target Tissue: Type of Lesion: LUNG: TUMOR, Dose [Carcinogen]: 100 MG/KG ONCE AFTER FOURTH INHIBITOR DOSE","100%, 100%, 0%, not significant"
same,"tumour outcome (control, treated, inhibition, significance)","Carcinogen: BENZO[A]PYRENE, 50-32-8, 82 MG/KG/D FOR 6 CONSECUTIVE DAYS (STUDY DURATION: 7 MO), Route [Inhibitor]: GAVAGE, Species: MOUSE, Strain/Sex: STRAIN-A/MALE, Target Tissue: Type of Lesion: LUNG: TUMOR, Dose [Carcinogen]: 100 MG/KG ONCE AFTER FOURTH INHIBITION DOSE","100%, 100%, 0%, not significant"
same,"tumour outcome (control, treated, inhibition, significance)","Carcinogen: BENZO[A]PYRENE, 50-32-8, 122 MG/KG/D FOR 6 CONSECUTIVE DAYS (STUDY DURATION: 7 MO), Route [Inhibitor]: GAVAGE, Species: MOUSE, Strain/Sex: STRAIN-A/FEMALE, Target Tissue: Type of Lesion: LUNG: TUMOR, Dose [Carcinogen]: 100 MG/KG ONCE AFTER FOURTH INHIBITOR DOSE","100%, 90%, 10%, not significant"
same,"tumour outcome (control, treated, inhibition, significance)","Carcinogen: BENZO[A]PYRENE, 50-32-8, 122 MG/KG/D FOR 6 CONSECUTIVE DAYS (STUDY DURATION: 7 MO), Route [Inhibitor]: GAVAGE, Species: MOUSE, Strain/Sex: STRAIN-A/MALE, Target Tissue: Type of Lesion: LUNG: TUMOR, Dose [Carcinogen]: 100 MG/KG ONCE AFTER FOURTH INHIBITOR DOSE","100%, 95%, 5%, not significant"
same,"tumour outcome (control, treated, inhibition, significance)","Carcinogen: DIETHYLNITROSAMINE, 55-18-5, 82 MG/KG BW BY INTRAPERITONEAL INJECTION ON DAYS 13, 14 AND 15 OF AGE THEN 0.65 G/KG DIET FROM 21 TO 161 DAYS OF AGE, Route [Inhibitor]: INTRAPERITONEAL, ORAL, Species: MOUSE, Strain/Sex: C3H/MALE, Target Tissue: Type of Lesion: LIVER: ADENOMA, Dose [Carcinogen]: 4 MG/KG IN TRICAPRYLIN ONCE ON DAY 15 OF AGE","100%, 89%, 11%, not significant"
same,"tumour outcome (control, treated, inhibition, significance)","Carcinogen: DIETHYLNITROSAMINE, 55-18-5, N-METHYL-N-NITROSOUREA, 684-93-5, N-BUTYL-N-(4-HYDROXYBUTYL)NITROSAMINE, 3817-11-6, DIMETHY, Carcinogen: DIETHYLNITROSAMINE, 55-18-5, N-METHYL-N-NITROSOUREA, 684-93-5, N-BUTYL-N-(4-HYDROXYBUTYL)NITROSAMINE, 3817-11-6, DIMETHY, 0.1% IN THE DIET FOR 24 WK BEGINNING 1 DAY POST CARCINOGEN TREATMENT (STUDY DURATION: 28 WK), Route [Inhibitor]: ORAL, Species: RAT, Strain/Sex: F344/MALE, Target Tissue: Type of Lesion: LARGE INTESTINE: ADENOMA, Dose [Carcinogen]: 100 MG/KG BW DEN ONCE FOLLOWED BY 20 MG/KG BW MNU 4 TIMES AND 0.05% BBN IN DRINKING WATER DURING FIRST 2 WK THEN 40 MG/K","27%, 7%, 74%, not significant"
same,"tumour outcome (control, treated, inhibition, significance)","Carcinogen: DIETHYLNITROSAMINE, 55-18-5, N-METHYL-N-NITROSOUREA, 684-93-5, N-BUTYL-N-(4-HYDROXYBUTYL)NITROSAMINE, 3817-11-6, DIMETHY, Carcinogen: DIETHYLNITROSAMINE, 55-18-5, N-METHYL-N-NITROSOUREA, 684-93-5, N-BUTYL-N-(4-HYDROXYBUTYL)NITROSAMINE, 3817-11-6, DIMETHY, 0.1% IN THE DIET FOR 24 WK BEGINNING 1 DAY POST CARCINOGEN TREATMENT (STUDY DURATION: 28 WK), Route [Inhibitor]: ORAL, Species: RAT, Strain/Sex: F344/MALE, Target Tissue: Type of Lesion: LARGE INTESTINE: CARCINOMA, Dose [Carcinogen]: 100 MG/KG BW DEN ONCE FOLLOWED BY 20 MG/KG BW MNU 4 TIMES AND 0.05% BBN IN DRINKING WATER DURING FIRST 2 WK THEN 40 MG/K","7%, 0%, 100%, not significant"
same,"tumour outcome (control, treated, inhibition, significance)","Carcinogen: DIETHYLNITROSAMINE, 55-18-5, N-METHYL-N-NITROSOUREA, 684-93-5, N-BUTYL-N-(4-HYDROXYBUTYL)NITROSAMINE, 3817-11-6, DIMETHY, Carcinogen: DIETHYLNITROSAMINE, 55-18-5, N-METHYL-N-NITROSOUREA, 684-93-5, N-BUTYL-N-(4-HYDROXYBUTYL)NITROSAMINE, 3817-11-6, DIMETHY, 0.1% IN THE DIET FOR 24 WK BEGINNING 1 DAY POST CARCINOGEN TREATMENT (STUDY DURATION: 28 WK), Route [Inhibitor]: ORAL, Species: RAT, Strain/Sex: F344/MALE, Target Tissue: Type of Lesion: SMALL INTESTINE: ADENOMA, Dose [Carcinogen]: 100 MG/KG BW DEN ONCE FOLLOWED BY 20 MG/KG BW MNU 4 TIMES AND 0.05% BBN IN DRINKING WATER DURING FIRST 2 WK THEN 40 MG/K","33%, 50%, -52%, not significant"
same,"tumour outcome (control, treated, inhibition, significance)","Carcinogen: DIETHYLNITROSAMINE, 55-18-5, N-METHYL-N-NITROSOUREA, 684-93-5, N-BUTYL-N-(4-HYDROXYBUTYL)NITROSAMINE, 3817-11-6, DIMETHY, Carcinogen: DIETHYLNITROSAMINE, 55-18-5, N-METHYL-N-NITROSOUREA, 684-93-5, N-BUTYL-N-(4-HYDROXYBUTYL)NITROSAMINE, 3817-11-6, DIMETHY, 0.1% IN THE DIET FOR 24 WK BEGINNING 1 DAY POST CARCINOGEN TREATMENT (STUDY DURATION: 28 WK), Route [Inhibitor]: ORAL, Species: RAT, Strain/Sex: F344/MALE, Target Tissue: Type of Lesion: SMALL INTESTINE: CARCINOMA, Dose [Carcinogen]: 100 MG/KG BW DEN ONCE FOLLOWED BY 20 MG/KG BW MNU 4 TIMES AND 0.05% BBN IN DRINKING WATER DURING FIRST 2 WK THEN 40 MG/K","7%, 14%, -100%, not significant"
same,"tumour outcome (control, treated, inhibition, significance)","Carcinogen: DIETHYLNITROSAMINE, 55-18-5, N-METHYL-N-NITROSOUREA, 684-93-5, N-BUTYL-N-(4-HYDROXYBUTYL)NITROSAMINE, 3817-11-6, DIMETHY, Carcinogen: DIETHYLNITROSAMINE, 55-18-5, N-METHYL-N-NITROSOUREA, 684-93-5, N-BUTYL-N-(4-HYDROXYBUTYL)NITROSAMINE, 3817-11-6, DIMETHY, 0.1% IN THE DIET FOR 24 WK BEGINNING 1 DAY POST CARCINOGEN TREATMENT (STUDY DURATION: 28 WK), Route [Inhibitor]: ORAL, Species: RAT, Strain/Sex: F344/MALE, Target Tissue: Type of Lesion: THYROID: CARCINOMA, Dose [Carcinogen]: 100 MG/KG BW DEN ONCE FOLLOWED BY 20 MG/KG BW MNU 4 TIMES AND 0.05% BBN IN DRINKING WATER DURING FIRST 2 WK THEN 40 MG/K","7%, 8%, -14%, not significant"
same,"tumour outcome (control, treated, inhibition, significance)","Carcinogen: DIETHYLNITROSAMINE, 55-18-5, N-METHYL-N-NITROSOUREA, 684-93-5, N-BUTYL-N-(4-HYDROXYBUTYL)NITROSAMINE, 3817-11-6, DIMETHY, Carcinogen: DIETHYLNITROSAMINE, 55-18-5, N-METHYL-N-NITROSOUREA, 684-93-5, N-BUTYL-N-(4-HYDROXYBUTYL)NITROSAMINE, 3817-11-6, DIMETHY, 0.1% IN THE DIET FOR 24 WK BEGINNING 1 DAY POST CARCINOGEN TREATMENT (STUDY DURATION: 28 WK), Route [Inhibitor]: ORAL, Species: RAT, Strain/Sex: F344/MALE, Target Tissue: Type of Lesion: URINARY BLADDER: PAPILLOMA, Dose [Carcinogen]: 100 MG/KG BW DEN ONCE FOLLOWED BY 20 MG/KG BW MNU 4 TIMES AND 0.05% BBN IN DRINKING WATER DURING FIRST 2 WK THEN 40 MG/K","7%, 33%, -371%, not significant"
same,"tumour outcome (control, treated, inhibition, significance)","Carcinogen: DIETHYLNITROSAMINE, 55-18-5, N-METHYL-N-NITROSOUREA, 684-93-5, N-BUTYL-N-(4-HYDROXYBUTYL)NITROSAMINE, 3817-11-6, DIMETHY, Carcinogen: DIETHYLNITROSAMINE, 55-18-5, N-METHYL-N-NITROSOUREA, 684-93-5, N-BUTYL-N-(4-HYDROXYBUTYL)NITROSAMINE, 3817-11-6, DIMETHY, 0.1% IN THE DIET FOR 24 WK BEGINNING 1 WK P0ST CARCINOGEN TREATMENT (STUDY DURATION: 28 WK), Route [Inhibitor]: ORAL, Species: RAT, Strain/Sex: F344/MALE, Target Tissue: Type of Lesion: URINARY BLADDER: CARCINOMA, Dose [Carcinogen]: 100 MG/KG BW DEN ONCE FOLLOWED BY 20 MG/KG BW MNU 4 TIMES AND 0.05% BBN IN DRINKING WATER DURING FIRST 2 WK THEN 40 MG/K","7%, 33%, -371%, not significant"
